According to US10392422B2, “Macrocyclic broad spectrum antibiotics” (priority 2014, dated 2019):
≈ marks a conversion by molar mass, not a printed value. Read-outs that look alike come from different tables or passages of the source.

Assays:
Assay in all cases: MIC, broth micro-dilution technique (CLSI)
[1] = tested on: Escherichia coli MC4100 harboring the IMP4213; format: cell-based; conditions: Escherichia coli, 22 h
Outline: (§1)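 Cation-adjusted MHB + 0.002% Tween-80; 10-point 2-fold series starting 64 μg/ml (modified protocol: 4 μg/mL). Final inoculum OD600 0.0005; 35° C, 22 h. MIC per CLSI M07-A8 broth microdilution.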

[2] = tested on: Methicillin Resistant Staphylococcus aureus strain USA 300 (NRS384); format: cell-based; conditions: Staphylococcus aureus, 22 h, read-out: MIC (μg/mL) S. aureus
Outline: as §1

MRSA COL (NRS100) = format: cell-based, Staphylococcus aureus; conditions: Staphylococcus aureus, 22 h, read-out: MIC (μg/mL) (COL)
Protocol: In vitro antimicrobial activity of each compound was determined by measuring minimal inhibitor concentrations (MICs) using the broth micro-dilution technique as approved by the Clinical and Laboratory Standards Institute (CLSI) (Methods for Dilution Antimicrobial Susceptibility Tests for Bacteria that Grow Aerobically; Approved Standard—Eighth Edition. CLSI document M07-A8. Wayne, Pa.: Clinical and Laboratory Standards; 2009). Antibacterial activity was measured against three strains of bacteria: a Methicillin Resistant Staphylococcus aureus strain USA 300 (NRS384); a MRSA COL (NRS100), another Methicillin Resistant Staphylococcus aureus strain; and a strain of Escherichia coli MC4100 harboring the IMP4213, which results in increased outer-membrane permeability (B Martin and Silhavy T. Imp/OstA is required for cell envelope biogenesis in Escherichia coli. (2002) Molecular Microbiology, 45(5), 1289-1302). Cells were inoculated onto plates of Trypyticase Soy Agar or Luria Agar respectively and grown at 35° C. for 20 hours. Inocula suspensions were prepared by scraping cells into 1 ml of testing media (cation adjusted Mueller Hinton Broth supplemented with 0.002% v/v Tween-80) and diluting to a final OD600 nm of 0.01.
Test compounds were prepared in DMSO at a concentration of 10 mg/ml. These compound stocks were diluted into testing media at a concentration of 64 μg/ml and serial 2-fold dilutions were made in the same media, in 96-well U bottom microtiter dishes, for a total of 10 compound concentrations (Table 1). In modified protocols (Table 2), compound stocks were diluted into testing media at a concentration of 4 μg/mL and serial 2-fold dilutions were made in the same media, in 96-well U bottom microtiter dishes, for a total of 10 compound concentrations. Inocula suspensions were added to the 2-fold serial dilutions of test compounds to a final density of OD OD600 nm of 0.0005 and incubated at 35° C. for 22 hours. […] The results from the protocol starting from a concentration of 64 µg/mL are listed in Table 1 and the results from the modified protocol are shown in Table 2.

[3] = read-out: MIC (μg/mL) E. coli, Table 1 protocol: serial 2-fold dilutions starting from 64 μg/ml, 35° C., 22 hours
[4] = Table 1 protocol: serial 2-fold dilutions starting from 64 μg/ml, 35° C., 22 hours

Compound	MIC ([1]; read-out: MIC (μg/mL) E. coli)	MIC [2]	MIC (MRSA COL (NRS100))	MIC [1, 3]	MIC [2, 4]	MIC (MRSA COL (NRS100); [4])
C[C@H](NC(=O)[C@@H]1Cc2ccc(O)c(c2)-c2cc(ccc2O)[C@H](N(C)C(=O)[C@H](CCCCN)NC(=O)c2ccc(-c3ccc(Cl)cc3)cc2)C(=O)N[C@@H](C)C(=O)N1)C(=O)CP(=O)(O)O [Compound 166]	> 64 µg/mL	32 µg/mL (≈ 35.3 µM)	8 µg/mL (≈ 8.84 µM)	–	–	–
COP(=O)(O)CC(=O)[C@H](C)NC(=O)[C@@H]1Cc2ccc(O)c(c2)-c2cc(ccc2O)[C@H](N(C)C(=O)[C@H](CCCCN)NC(=O)c2ccc(-c3ccc(Cl)cc3)cc2)C(=O)N[C@@H](C)C(=O)N1 [Compound 167]	> 64 µg/mL	16 µg/mL (≈ 17.4 µM)	4 µg/mL (≈ 4.35 µM)	–	–	–
C[C@@H]1NC(=O)[C@@H](N(C)C(=O)[C@H](CCCCN)NC(=O)c2ccc(-c3ccc(Cl)cc3)cc2)c2ccc(O)c(c2)-c2cc(ccc2O)C[C@@H](C(=O)N[C@@H](C)C(=O)N2CSC[C@@H]2C(N)=O)NC1=O [Compound 175]	–	–	–	32 µg/mL (≈ 34 µM)	> 64 µg/mL	32 µg/mL (≈ 34 µM)
C[C@@H]1NC(=O)[C@@H](N(C)C(=O)[C@H](CCCCN)NC(=O)c2ccc(-c3ccc(Cl)cc3)cc2)c2ccc(O)c(c2)-c2cc(ccc2O)C[C@@H](C(=O)N[C@@H](C)C(=O)N2C[C@@H](O)C[C@H]2C(N)=O)NC1=O [Compound 177]	–	–	–	64 µg/mL (≈ 68.1 µM)	16 µg/mL (≈ 17 µM)	4 µg/mL (≈ 4.26 µM)
C[C@H](NC(=O)[C@@H]1CCCN1C(=O)[C@H](C)NC(=O)[C@@H]1Cc2ccc(O)c(c2)-c2cc(ccc2O)[C@H](N(C)C(=O)[C@H](CCCCN)NC(=O)c2ccc(-c3ccc(Cl)cc3)cc2)C(=O)N[C@@H](C)C(=O)N1)C(N)=O [Compound 179]	–	32 µg/mL (≈ 32.2 µM)	16 µg/mL (≈ 16.1 µM)	64 µg/mL (≈ 64.4 µM)	–	–
C[C@@H]1NC(=O)[C@@H](N(C)C(=O)[C@H](CCCCN)NC(=O)c2ccc(-c3ccc(Cl)cc3)cc2)c2ccc(O)c(c2)-c2cc(ccc2O)C[C@@H](C(=O)N[C@@H](C)C(=O)N(C)CC(N)=O)NC1=O [Compound 182]	–	–	–	64 µg/mL (≈ 71.3 µM)	10 µg/mL (≈ 11.1 µM)	2 µg/mL (≈ 2.23 µM)
C[C@@H]1NC(=O)[C@@H](N(C)C(=O)[C@H](CCCCN)NC(=O)c2ccc(-c3ccc(Cl)cc3)cc2)c2ccc(O)c(c2)-c2cc(ccc2O)C[C@@H](C(=O)N[C@@H](C)C(=O)N(C)[C@@H](C)C(N)=O)NC1=O [Compound 183]	–	–	–	32 µg/mL (≈ 35.1 µM)	8 µg/mL (≈ 8.78 µM)	2.4 µg/mL (≈ 2.63 µM)
C[C@@H]1NC(=O)[C@@H](N(C)C(=O)[C@H](CCCCN)NC(=O)c2ccc(-c3ccc(Cl)cc3)cc2)c2ccc(O)c(c2)-c2cc(ccc2O)C[C@@H](C(=O)N[C@@H](C)C(=O)N2CCC[C@H]2C(=O)NN)NC1=O [Compound 186]	–	–	–	> 64 µg/mL	45 µg/mL (≈ 47.9 µM)	12 µg/mL (≈ 12.8 µM)
CCCCCCCCCCNCCC(=O)N[C@@H](CCCCN)C(=O)N(C)[C@@H]1C(=O)N[C@@H](C)C(=O)N[C@H](C(=O)N[C@@H](C)C(=O)N(C)[C@H]2CCNC2=O)Cc2ccc(O)c(c2)-c2cc1ccc2OCCN [Compound 187]	–	–	–	23 µg/mL (≈ 23.9 µM)	3.7 µg/mL (≈ 3.84 µM)	0.5 µg/mL (≈ 0.519 µM)
CC(NC(=O)[C@@H]1Cc2ccc(O)c(c2)-c2cc(ccc2O)[C@H](N(C)C(=O)[C@H](CCCCN)NC(=O)c2ccc(-c3ccc(Cl)cc3)cc2)C(=O)N[C@@H](C)C(=O)N1)C(=O)c1ncco1 (stereo partly drawn) [Compound 188]	–	–	–	11 µg/mL (≈ 12.5 µM)	16 µg/mL (≈ 18.2 µM)	4 µg/mL (≈ 4.55 µM)
C[C@H](NC(=O)[C@@H]1Cc2ccc(O)c(c2)-c2cc(ccc2O)[C@H](N(C)C(=O)[C@H](CCCCN)NC(=O)c2ccc(-c3ccc(Cl)cc3)cc2)C(=O)N[C@@H](C)C(=O)N1)C(=O)CC(N)=O [Compound 189]	–	–	–	32 µg/mL (≈ 36.8 µM)	5.7 µg/mL (≈ 6.56 µM)	2 µg/mL (≈ 2.3 µM)
CCCCCCCCCCNCCC(=O)N[C@@H](CCCCN)C(=O)N(C)[C@@H]1C(=O)N[C@@H](C)C(=O)N[C@H](C(=O)N[C@@H](C)C(=O)N2CCC[C@H]2C(N)=O)Cc2ccc(O)c(c2)-c2cc1ccc2OCCN [Compound 190]	–	–	–	32 µg/mL (≈ 33.2 µM)	1.7 µg/mL (≈ 1.76 µM)	0.25 µg/mL (≈ 0.26 µM)
COC(=O)CC(=O)[C@H](C)NC(=O)[C@@H]1Cc2ccc(O)c(c2)-c2cc(ccc2O)[C@H](N(C)C(=O)[C@H](CCCCN)NC(=O)c2ccc(-c3ccc(Cl)cc3)cc2)C(=O)N[C@@H](C)C(=O)N1 [Compound 191]	–	–	–	> 64 µg/mL	32 µg/mL (≈ 36.2 µM)	8 µg/mL (≈ 9.06 µM)
C[C@H](NC(=O)[C@@H]1Cc2ccc(O)c(c2)-c2cc(ccc2O)[C@H](N(C)C(=O)[C@H](CCCCN)NC(=O)c2ccc(-c3ccc(Cl)cc3)cc2)C(=O)N[C@@H](C)C(=O)N1)C(=O)Cc1c[nH]nn1 [Compound 192]	–	–	–	64 µg/mL (≈ 71.7 µM)	11 µg/mL (≈ 12.3 µM)	2 µg/mL (≈ 2.24 µM)
CCCCCCCCCCNCCC(=O)N[C@@H](CCCCN)C(=O)N(C)[C@@H]1C(=O)N[C@@H](C)C(=O)N[C@H](C(=O)N[C@@H](C)C(=O)c2nnn[nH]2)Cc2ccc(O)c(c2)-c2cc1ccc2OCCN [Compound 193]	–	–	–	8 µg/mL (≈ 8.7 µM)	0.5 µg/mL (≈ 0.544 µM)	0.13 µg/mL (≈ 0.141 µM)
CC(NC(=O)[C@@H]1Cc2ccc(O)c(c2)-c2cc(ccc2O)[C@H](N(C)C(=O)[C@H](CCCCN)NC(=O)c2ccc(-c3ccc(Cl)cc3)cc2)C(=O)N[C@@H](C)C(=O)N1)C(=O)c1ncccn1 (stereo partly drawn) [Compound 194]	–	–	–	8 µg/mL (≈ 8.99 µM)	8 µg/mL (≈ 8.99 µM)	4 µg/mL (≈ 4.5 µM)
COCC(=O)[C@H](C)NC(=O)[C@@H]1Cc2ccc(O)c(c2)-c2cc(ccc2OCCN)[C@H](N(C)C(=O)[C@H](CCCCN)NC(=O)c2ccc(-c3ccc(Cl)cc3)cc2)C(=O)N[C@@H](C)C(=O)N1 [Compound 195]	–	–	–	2 µg/mL (≈ 2.23 µM)	2.8 µg/mL (≈ 3.12 µM)	0.38 µg/mL (≈ 0.423 µM)
CCCCCCCCCCNCCC(=O)N(C)[C@@H]1C(=O)N[C@@H](C)C(=O)N[C@H](C(=O)N[C@@H](C)C(C)=O)Cc2ccc(O)c(c2)-c2cc1ccc2O [Compound 196]	–	4 µg/mL (≈ 5.76 µM)	1 µg/mL (≈ 1.44 µM)	> 64 µg/mL	–	–
C[C@@H]1NC(=O)[C@@H](N(C)C(=O)[C@H](CCCCN)NC(=O)c2ccc(-c3ccc(Cl)cc3)cc2)c2ccc(O)c(c2)-c2cc(ccc2O)C[C@@H](C(=O)N[C@@H](C)C(=O)N(C)[C@H](C)C(N)=O)NC1=O [Compound 197]	–	–	–	32 µg/mL (≈ 35.1 µM)	20 µg/mL (≈ 21.9 µM)	3.9 µg/mL (≈ 4.28 µM)
C[C@@H]1NC(=O)[C@@H](N(C)C(=O)[C@H](CCCCN)NC(=O)c2ccc(-c3ccc(Cl)cc3)cc2)c2ccc(O)c(c2)-c2cc(ccc2O)C[C@@H](C(=O)N[C@@H](C)C(=O)N(C)[C@@H](CO)C(N)=O)NC1=O [Compound 198]	–	–	–	16 µg/mL (≈ 17.3 µM)	13 µg/mL (≈ 14 µM)	2 µg/mL (≈ 2.16 µM)
C[C@@H]1NC(=O)[C@@H](N(C)C(=O)[C@H](CCCCN)NC(=O)c2ccc(-c3ccc(Cl)cc3)cc2)c2ccc(O)c(c2)-c2cc(ccc2O)C[C@@H](C(=O)N[C@@H](CO)C(=O)N(C)[C@@H](C)C(N)=O)NC1=O [Compound 199]	–	–	–	64 µg/mL (≈ 69 µM)	10 µg/mL (≈ 10.8 µM)	2 µg/mL (≈ 2.16 µM)
CCCCCCCCCCNCCC(=O)N[C@@H](CCCCN)C(=O)N(C)[C@@H]1C(=O)N[C@@H](C)C(=O)N[C@H](C(=O)N[C@@H](C)C(=O)COC(C)=O)Cc2ccc(O)c(c2)-c2cc1ccc2O [Compound 200]	–	–	–	64 µg/mL (≈ 72.7 µM)	2 µg/mL (≈ 2.27 µM)	0.5 µg/mL (≈ 0.568 µM)
CCCCCCCCCCNCCC(=O)N[C@@H](CCCCN)C(=O)N(C)[C@@H]1C(=O)N[C@@H](C)C(=O)N[C@H](C(=O)N[C@@H](C)C(=O)CO)Cc2ccc(O)c(c2)-c2cc1ccc2OCCN [Compound 201]	–	–	–	8 µg/mL (≈ 9.08 µM)	0.35 µg/mL (≈ 0.397 µM)	0.063 µg/mL (≈ 0.0715 µM)
CC(=O)[C@H](C)NC(=O)[C@@H]1Cc2ccc(O)c(c2)-c2cc(ccc2OCCCN)[C@H](N(C)C(=O)[C@H](CCCCN)NC(=O)c2ccc(-c3ccc(Cl)cc3)cc2)C(=O)N[C@@H](C)C(=O)N1 [Compound 202]	–	–	–	8 µg/mL (≈ 9.07 µM)	2.8 µg/mL (≈ 3.17 µM)	0.5 µg/mL (≈ 0.567 µM)
CNCCNCCOc1ccc2cc1-c1cc(ccc1O)C[C@@H](C(=O)N[C@@H](C)C(C)=O)NC(=O)[C@H](C)NC(=O)[C@H]2N(C)C(=O)[C@H](CCCCN)NC(=O)c1ccc(-c2ccc(Cl)cc2)cc1 [Compound 204]	–	–	–	8 µg/mL (≈ 8.64 µM)	11 µg/mL (≈ 11.9 µM)	1 µg/mL (≈ 1.08 µM)
